These results are taken from patent US12569170B2, “Paramagnetic sodium NMR macrocyclic-based biosensors, and associated methods” (Yale University, priority 2021, dated 2026).

Holding throughout (format): physicochemical
Test [1] can be described thus: In vitro ^23Na-NMR, two-compartment coaxial cylinder tube (^23Na shiftability). From the text:
The goal of these studies was to separate the total Na^+ signal (Na^+T) into distinct signals for blood (Na^+b), interstitial (Na^+e), and intracellular (Na^+i) pools (FIG. 1). The shifting mechanism induced by exogenous TmDOTP^5− and endogenous biological factors on the ^23Na chemical shift in vitro is depicted in FIGS. 1C-1G. A two-compartment coaxial cylinder NMR tube setup in vitro was used to mimic Na^+ in interstitial/intracellular pools. The inner (smaller) and outer (larger) compartments both contained 150 mM NaCl while the latter also contained TmDOTP^5− at various concentrations. The setup was subjected to several different pH and temperature conditions. The inner compartment, which lacked TmDOTP^5− to represent the intracellular space in vivo, produced a small but unshifted ^23Na peak at 0 ppm. The larger ^23Na peak was shifted downfield by TmDOTP^5−, with the difference in peak integrals stemming from different compartment volumes.
The ^23Na shiftability for TmDOTP^5− s[paraCA^n−]=[…] was 11.1×larger than the shiftability for pH (spH=0.25 ppm/pH unit) and 92.3×larger than the shiftability for temperature (sT=0.03 ppm/° C.). This means that addition of 1.1 mM TmDOTP^5− would induce a ˜3 ppm shift in the ^23Na peak. Conversely, a maximal change of 0.4 in pH units, which is observed between normal and tumor tissues, would induce only a ˜0.1 ppm ^23Na shift. A similar ^23Na shift by temperature would require a 3.3° C. change, which is unlikely in vivo. Based on the pH and temperature ranges observed in vivo (including tumors), the effect from [TmDOTP^5−] dominates the ^23Na chemical shift by 95%. Therefore, [TmDOTP^5−] is several orders of magnitude more sensitive in shifting the ^23Na resonance than typical in vivo factors. Furthermore, the ^23Na shiftability arising from [TmDOTP^5−] and pH/temperature effects is much larger than T2 broadening from TmDOTP^5− (FIG. 1C). […] (FIGS. 1D-1E). However, for in vivo scenarios the ranges shown for pH (2 full pH units) and temperature (15° C. interval) are overestimated, and where [Na^+] far exceeds [TmDOTP^5−] based on prior experiments. In blood and interstitial spaces, [Na^+] is ˜30-100×greater than [TmDOTP^5−].
In vitro experiments were performed using a 2-compartment coaxial cylindrical 7-inch NMR tube setup from WilmadLabGlass (Vineland, NJ, USA). One compartment contained 150 mM NaCl and the other contained the same but with varying amounts of TmDOTP^5− (1-10 mM) and 10% v/v ^2H2O to lock the spectrometer frequency using the ^2H2O signal. NaCl and ^2H2O were purchased from Sigma-Aldrich (St. Louis, MO, USA), and TmDOTP^5− was purchased as the sodium salt Na5TmDOTP from Macrocyclics (Plano, TX, USA). The 5-mm opening of the NMR tube permitted an insert (the inner compartment) whose 50-mm-long tip had inner and outer diameters of 1.258 and 2.020 mm, respectively. The outer-to-inner volume ratio between the two compartments was 8.6. The geometry of the setup allowed 645 μL total in the outer compartment to fill around the tip. Each solution was pH-adjusted using HCl or KOH to give 5 different pH values.
^23Na-NMR spectra were collected on a Bruker Avance III HD 500 MHz vertical-bore spectrometer (Bruker, Billerica, MA, USA) interfaced with Bruker TopSpin v2.1 software. A Bruker 500 MHz TBO liquid broadband probe with z-gradient was used in all frequencies, and an inner coil was used to detect X-nuclei. A single ^23Na square pulse (50 μs) was used to globally excite the volume of interest (repetition time TR=275 ms) collecting 2048 free induction decay (FID) points in the time domain with an acquisition time taq=38.9 ms, averaged 4096 times. Each set of scans was repeated at a series of temperatures: 27, 30, 34, 37, and 40° C. Spectra were analyzed using 10 Hz line broadening (for improved delineation of major peaks and reduction of baseline noise) and manual zeroth- and first-order phasing. […]

Test [2] is described as follows: Effect of cation competition on ^23Na chemical shift and linewidth in vitro. Particulars: for ^23Na chemical shift / ^23Na linewidth: 150 mM NaCl. As for the experimental part:
FIGS. 13A-13C depicts effect of cation competition on ^23Na chemical shift and linewidth induced by 2 mM TmDOTP^5−. (FIG. 13A)^23Na NMR spectra for 150 mM NaCl solutions containing 2 mM TmDOTP^5− alone, and in the presence of 2 mM Ca^2+, 2 mM Mg^2+, 10 mM K^+, and all three of these ions. Ca^2+, Mg^2+, and K^+ were introduced as the salts CaCl2, MgCl2, and KBr, respectively. These concentrations were all chosen to represent physiological concentrations in the interstitial space. […] Chemical shift ranged between 2.433 ppm (FIG. 13B, alone) and 2.352 ppm (FIG. 13B, all), representing only a 3% change in the presence of all competing cations. Linewidth ranged between 0.2433 ppm (FIG. 13C, alone) and 0.2285 ppm (FIG. 13C, all), representing only a 6% change in the presence of all competing cations.
(§1) Upon translation of the present in vitro results to in vivo situations, certain confounding factors must be addressed. In the interstitial space, there are additional cations such as calcium (Ca^2+), magnesium (Mg^2+) and K^+ which will also bind to anionic contrast agents like TmDOTP^5−. However, physiologically their concentrations are low compared to Na^+. […] Additionally, there is a contribution to the chemical shift from bulk magnetic susceptibility (BMS) changes brought about by TmDOTP^5− in addition to the hyperfine shifts induced by interactions with Na^+. Experiments were performed on different DOTP^8− salts in phantoms parallel and perpendicular to the main magnetic field B0, and also spherical phantoms in which there was no BMS contribution. Only a small portion (˜2%) of the total chemical shift for TmDOTP^5− was due to BMS arising due to anisotropy of the paramagnetic susceptibility, and the remainder was the hyperfine shift.

A short description of test [3]: Bulk magnetic susceptibility (BMS) contribution to chemical shift in phantoms. Particulars: phantoms parallel, perpendicular to B0 and spherical.
Description: as §1

The mark [4] stands for this setting: 2 mM TmDOTP^5− with 2 mM Ca^2+, 2 mM Mg^2+ and 10 mM K^+ (all).

Where “and” joins values, the source holds several entries; their conditions need not be identical. Identical values can stand only once.

Take `O=P([O-])([O-])CN1CCN(CP(=O)([O-])[O-])CCN(CP(=O)([O-])[O-])CCN(CP(=O)([O-])[O-])CC1.[Na+].[Na+].[Na+].[Na+].[Na+].[Tm+3]` [TmDOTP^5−, sodium thulium (III) 1,4,7,10-tetraazacyclododecane-1,4,7,10-tetrakis(methylenephosphonate)]: the “^23Na shifts caused by in vivo agent concentrations” value in test [1] (1-2 mM TmDOTP^5−) is 2.8-5.5 ppm. In test [1] (addition of 1.1 mM TmDOTP^5−), the “shift in the ^23Na peak induced by addition of agent” value was ~3 ppm. Besides, the “^23Na shiftability for pH (spH)” value in test [1] (in vitro, 150 mM NaCl with TmDOTP^5−) was 0.25 ppm/pH unit. For the same compound, the “^23Na shiftability for temperature (sT)” value in test [1] (in vitro, 150 mM NaCl with TmDOTP^5−, 27-40° C.) is 0.03 ppm/° C. In test [1] (maximal change of 0.4 pH units between normal and tumor tissue), the “^23Na shift variation caused by pH” value was ~0.1 ppm. Also, in test [1] (ratio), the “shiftability for TmDOTP^5− relative to shiftability for pH” value was 11.1 × and the “shiftability for TmDOTP^5− relative to shiftability for temperature” value was 92.3 ×. In addition, in test [1] (temperature difference ~0.5° C.), the “^23Na shift variation caused by temperature” value was determined as 0.015 ppm. Besides, the “share of the ^23Na chemical shift dominated by [TmDOTP^5−] effect” value in test [1] (versus pH and temperature ranges observed in vivo) is 95% and 96-98%. Besides, in test [2] (2 mM TmDOTP^5−, alone vs all), the “change in ^23Na chemical shift in the presence of all competing cations” value came to 3% and the “change in ^23Na linewidth in the presence of all competing cations” value was found to be 6%. Further, in test [2] (2 mM TmDOTP^5− alone), the “^23Na chemical shift” value is given as 2.433 ppm and the “^23Na linewidth” value is 0.2433 ppm. In addition, in test [2] (setting [4]), the “^23Na chemical shift” value is recorded as 2.352 ppm and the “^23Na linewidth” value was 0.2285 ppm. For the same compound, the “changes in ^23Na chemical shift and linewidth by cationic competition” value in test [2] (typical in vivo concentrations of Ca^2+, Mg^2+, K^+) is recorded as “negligible changes”. The “portion of the total chemical shift due to BMS” value in test [3] is given as ~2%.
